Experimental data from patent US6660468B1, “Vitro and in vivo models for screening compounds to prevent glucocorticoid-induced bone destruction” (Board of Trustees of the University of Arkansas, priority 1998, dated 2003).
Where “and” joins values, the source holds several entries; their conditions need not be identical. Equal values may be shown once. Values belong to the compound of their own block, whether it stands above or below them.

Key:
Male Swiss Webster mice [1] = experiment: Bone densitometry (DEXA) in prednisolone-treated mice; format: in vivo, mouse; settings: for Global BMD (% change) / Hindquarters BMD (% change) / Spinal BMD (% change): 27 days
From the text: (§1) Bone mineral density (BMD) determinations were done at two week intervals to identify the peak adult bone mass of the mice, which was reached between 5 and 6 months-of-age (9). Animals at peak bone mass were used to avoid obscuring the negative impact of glucocorticoid excess on bone mineral density by the confounding effects of increased linear and radial growth. Before the experiment began, bone mineral density measurements were repeated to allocate the animals into groups (n=4-5) with equivalent spinal density values. […] These doses were administered for 27 days by subcutaneous implantation of slow-release pellets (Innovative Research of America, Sarasota, Fla.). Bone mineral density measurements were obtained at the beginning of the experiment and 27 days post-implantation. For dynamic histomorphometric measurements, tetracycline HCl (30 mg/kg body weight) was given intraperitoneally 17 and 23 days post-implantation. After 27 days, the mice were sacrificed, serum and urine specimens were taken, bone marrow aspirates were obtained from the right femur for ex vivo marrow cell cultures and the left femur and lumbar vertebrae were prepared for histomorphometric analysis. Livers were examined for fatty infiltration as a sign of prednisolone toxicity. The weight of the seminal vesicles (mg/100 g body weight) was used as an index of the androgen status of the animals (12). To help interpret these measurements, a separate group of animals was orchidectomized (n=5).
Dual-energy X-ray absorptiometry (DEXA) was used to determine global (whole body minus the head), spinal and hindquarters bone mineral density in live mice (7,9). The scans done at 27 days after pellet implantation were analyzed using the ‘Compare’ technique, in which the evaluation is based on the exact positioning and region of interest placement of the baseline scan. […] Over the 18 months, the coefficient of variation for the bone mineral density of a plastic-embedded whole mouse skeleton was 3.0% (n=146).

Male Swiss Webster mice [2] = experiment: Serum and urine biochemical measurements (osteocalcin, deoxypyridinoline); format: in vivo, mouse; settings: 27 days; for Osteocalcin: serum; for Deoxypyridinoline: urine
Protocol: as §1, with “Animals” for “Bone mineral density (BMD) determinations were done at two week intervals to identify the peak adult bone mass of the mice, which was reached between 5 and 6 months-of-age (9). Animals”
Serum osteocalcin was measured by radioimmunoassay using a goat anti-murine osteocalcin and murine osteocalcin as tracer and standard (Biomedical Technologies, Stoughton, Mass.). Urinary free deoxypyridinoline excretion was determined by a microtiter competitive enzyme immunoassay (Pyrilinks-D, Metra Biosystems, Mountain View, Calif.) and was expressed as a ratio to the urinary creatinine.

[3] = Food intake, body weight, seminal vesicle weight and hepatic fatty infiltration; format: in vivo, mouse; settings: mice; for Seminal Vesicle Weight: index of androgen status
Protocol: Male Swiss Webster mice (Charles River Laboratories, Stone Ridge, N.Y.) were electronically tagged (Biomedic Data System Inc., Maywood, N.J.) and kept in plastic cages (3-5 animals per cage) under standard laboratory conditions with a 12 hr dark, 12 hr light cycle and a constant temperature of 20° C. and humidity of 48%. All mice were fed on a standard rodent diet (Agway RMH 3000, Arlington Heights, Ill.) containing 22% protein, 5% fat, 5% fiber, 6% ash, 3.5 Kcal/g, 1.0 IU vitamin D3/g, 0.97% calcium and 0.85% phosphorus with water ad libitum. The animals and food supply were weighed at one week intervals throughout the experiment. Studies were approved by the UAMS Division of Laboratory and Animal Medicine.
as §1

[4] = system: murine vertebral cancellous bone; experiment: Vertebral cancellous bone histomorphometry after 27 days
Protocol: as §1, with “Animals” for “Bone mineral density (BMD) determinations were done at two week intervals to identify the peak adult bone mass of the mice, which was reached between 5 and 6 months-of-age (9). Animals”
(§2) The distal femora and lumbar vertebrae were fixed in 4° C. Millonig's phosphate-buffered 10% formalin, pH 7.4, embedded undecalcified in methyl methacrylate and stained (7,9,13). The histomorphometric examination was done with a computer and digitizer tablet (OsteoMetrics Inc. Version 3.00, Atlanta, Ga.) interfaced to a Zeiss Axioscope (Carl Zeiss, Inc., Thornwood, N.Y.) with a drawing tube attachment. All cancellous measurements were two-dimensional, confined to the secondary spongiosa and made at ×400 magnification (numerical aperture 0.75). The terminology and units used are those recommended by the Histomorphometry Nomenclature Committee of the American Society for Bone and Mineral Research (14). The trabecular width and osteoid width were measured directly. Trabecular spacing and number were calculated (15). Only TRAPase-positive cells were included in the osteoclast perimeter. The rate of bone formation (μm^2/μm/d) and turnover (%/d) were calculated (7).

[5] = system: CFU-F, CFU-OB and osteoclast progenitors in bone marrow cells; experiment: Osteoblastogenesis and osteoclastogenesis in ex vivo bone marrow cell cultures; parameters: species or system mouse; settings: 27 d
Protocol: One femur from each mouse was flushed with 5 ml of phenol red-free αMEM (Gibco BRL, Gaithersburg, Md.) containing 10% FBS (Hyclone, Logan, Utah) to obtain marrow cells. After the cells were rinsed and resuspended to obtain a single cell suspension, the nucleated cell count was determined using a Coulter Counter. Cells from each animal were cultured separately.
The number of colony-forming unit-fibroblast (CFU-F) and CFU-osteoblast (CFU-OB) present in the bone marrow preparations were determined (16-18). Briefly, cells were seeded at 1.5×10^6 per 10 cm^2 well for the determination of CFU-F number and maintained for 10 days in phenol red-free αMEM containing 15% preselected FBS, 50 μM ascorbic acid and 10 mM β-glycerophosphate (Sigma Chemical Co, St. Louis, Mo.) with one-half of the medium replaced after 5 days. After fixation in neutral buffered formalin and staining with hematoxylin, colonies containing a minimum of 20 fibroblastoid cells were enumerated. Cells were seeded at 2.5×10^6 cells per 10 cm^2 well for the determination of CFU-OB number and cultured for 25-28 days as described above for CFU-F. After fixation in 50% ethanol and 18% formaldehyde, cultures were stained using Von Kossa's method to visualize and enumerate colonies containing mineralized bone matrix.
Osteoclast formation in bone marrow cultures was assessed in replicate cultures (4-6 from each animal) maintained for 9 days in the presence of αMEM, 10% FBS and 10 nM 1.25(OH)2D3 (7). Briefly, marrow cells were cultured at 1.5×10^6 per 2 cm^2 well on 13 mm round Thermanox disks and maintained for 8 days in the presence of 10% FBS in αMEM supplemented with 10^−8 M 1.25(OH)2D3 (provided by Dr. Milan Uskokovic, Hoffman-LaRoche, Nutley, N.J.). At the end of the experiment, cells were processed for the autoradiographic detection of bound ^125I-calcitonin (^125I-CT) and stained for tartrate-resistant acid phosphatase. […] Therefore, mononucleated and multinucleated cells that both bind ^125I-CT and express TRAPase were designated as osteoclastic cells. The number of osteoclasts formed in this assay is a reflection of the number of osteoclast progenitors present in the bone marrow aspirate and the number of stromal/osteoblastic support cells that form during the culture period.
The number of CFU-F colonies, CFU-OB colonies, and osteoclastic cells formed from the marrow cells of each animal was expressed as the number per femur, which was calculated by multiplying the number of colonies or osteoclasts obtained per 10^6 cells seeded at the initiation of the cultures by the total number of marrow cells obtained from the animal.

[6] = system: murine osteoblasts and osteocytes; experiment: Apoptosis (TUNEL) in undecalcified murine bone sections; format: in vivo, mouse
Protocol: (§3) Sections were mounted on silane-coated glass slides (Scientific Device Lab, Inc., Des Plains, Ill.), deplasticized and incubated in 10 mM citrate buffer, pH 7.6, in a microwave oven at 98° C. for 5 minutes. Slides were then incubated with 0.5% pepsin for 30 minutes at 37° C. Apoptotic cells were detected by the TUNEL reaction (transferase-mediated biotin-dUTP nick end-labeling) using Klenow terminal deoxynucleotidyl transferase (Oncor, Gaithersburg, Md.) in sections counterstained with 1% methyl green. The TUNEL reaction was noted within cell nuclei and the cells whose nuclei were clearly brown from the peroxidase-labeled anti-digoxigenin antibody instead of the blue-green from the methyl green were interpreted as positive. Plastic-embedded sections of weaned rat mammary tissue were used as a positive control. Negative controls were made by omitting the transferase. Morphological changes characteristic of apoptosis were examined carefully to minimize ambiguity regarding the interpretation of results. With these precautions, TUNEL has been unequivocally associated with apoptosis (19). […] Apoptosis was also assessed in transiliac bone biopsy specimens taken from two patients with glucocorticoid-induced osteoporosis (receiving 15 to 25 mg/d of prednisone for 3 to 6 yr) and from 12 age-, sex- and race-matched controls (13). Two longitudinal sections were examined from each patient and control subject. Osteoblasts were identified as cuboidal cells lining the osteoid-covered trabecular perimeter (7,9,13). Osteocytes were identified inside lacunae in mineralized bone.

[7] = system: murine vertebral cancellous bone; format: in vivo, mouse
Protocol: as §2
To directly establish whether glucocorticoids initially accelerate bone resorption in the mouse, the vertebral cancellous bone histology were examined in an additional group of somewhat younger mice (5-mo-old) after 7 days administration of the higher dose of prednisolone or placebo (n=5).

[8] = system: human osteoblasts and osteocytes; experiment: Apoptosis (TUNEL) in transiliac bone biopsies of patients with glucocorticoid-induced osteoporosis; format: in vivo; settings: two patients
Protocol: as §3, with “Two longitudinal sections were examined from each patient and control subject. Osteoblasts were identified as cuboidal cells lining the osteoid-covered trabecular perimeter (7,9,13). Osteocytes were identified inside lacunae in mineralized bone.” left out

human cancellous bone = experiment: Bone histomorphometry of transiliac bone biopsies of patients; format: in vivo; settings: two patients
Protocol: as §2, §3

[9] = higher dose (2.1 mg/kg/d), 27 days, vs placebo

Global BMD (% change) (Male Swiss Webster mice [1]; 0.7 mg/kg/d s.c. slow-release pellet): −5.0 ± 2.2 % change
Hindquarters BMD (% change) (Male Swiss Webster mice [1]; 0.7 mg/kg/d): −3.8 ± 8.0 % change
Spinal BMD (% change) (Male Swiss Webster mice [1]; 0.7 mg/kg/d): −6.8 ± 3.2 % change
Global BMD (% change) (Male Swiss Webster mice [1]; 2.1 mg/kg/d s.c. slow-release pellet): −6.6 ± 1.9 % change
Hindquarters BMD (% change) (Male Swiss Webster mice [1]; 2.1 mg/kg/d): −3.4 ± 6.9 % change
Spinal BMD (% change) (Male Swiss Webster mice [1]; 2.1 mg/kg/d): −8.7 ± 3.5 % change
Effect on bone mineral density (Male Swiss Webster mice [1]; pellets releasing 0.5 mg/kg/d (the no effect dose)): did not decrease bone mineral density
Osteocalcin (Male Swiss Webster mice [2]; 0.7 mg/kg/d): 63.0 ± 27.7 µg/L
Osteocalcin (Male Swiss Webster mice [2]; 2.1 mg/kg/d): 46.4 ± 13.8 µg/L
Deoxypyridinoline (Male Swiss Webster mice [2]; 0.7 mg/kg/d): 63.6 ± 14.7 μM/mM creatinine
Deoxypyridinoline (Male Swiss Webster mice [2]; 2.1 mg/kg/d): 81.5 ± 11.3 μM/mM creatinine
Bone area/Tissue area ([4]; 0.7 mg/kg/d, 27 days): 6.9 ± 2.1%
Bone area/Tissue area ([4]; 2.1 mg/kg/d, 27 days): 6.3 ± 1.7 %
Active lifespan of an osteoblast ([4]; mouse, in vivo): about 260 hours
Increase in empty erosion cavities or reversal perimeter ([4]; mouse, in vivo): 3 fold
Wall width ([4]; mouse, in vivo): about 8 μm
Osteoblast perimeter ([7]; mouse, in vivo): 2.1±1.1%
Osteoclast perimeter ([7]; mouse, in vivo): 1.00±0.41%
SMILES: C[C@]12C=CC(=O)C=C1CC[C@@H]1[C@@H]2[C@@H](O)C[C@@]2(C)[C@H]1CC[C@]2(O)C(=O)CO [prednisolone]
Effect on bone mineral density (Male Swiss Webster mice [1]; 1.4 mg/kg/d, pilot studies): invariably causes densitometric evidence of bone loss
Decrease of serum osteocalcin compared to placebo (Male Swiss Webster mice [2]): more than 50%
Body Weight ([3]; 0.7 mg/kg/d): 33.8 ± 4.3 g
Food Intake ([3]; 0.7 mg/kg/d): 3.6 ± 0.2 g/day
Seminal Vesicle Weight ([3]; 0.7 mg/kg/d): 92.7 ± 8.7 mg/100 g body weight
Body Weight ([3]; 2.1 mg/kg/d): 32.2 ± 4.2 g
Food Intake ([3]; 2.1 mg/kg/d): 3.7 ± 0.4 g/day
Seminal Vesicle Weight ([3]; 2.1 mg/kg/d): 83.1 ± 6.9 mg/100 g body weight
Hepatic fatty infiltration ([3]; sign of prednisolone toxicity, 27 days): absent
Decrease in mineralizing perimeter ([4]; 27 days): 26%
Decline in mineral appositional rate ([4]; higher dose (2.1 mg/kg/d), 27 days): 40%
Decline in trabecular width [4, 9]: 23%
Decline in vertebral cancellous bone area [4, 9]: 40%
Decrease in osteoid area ([4]; higher dose, 27 days): 29%
Decrease in osteoid perimeter ([4]; higher dose, 27 days): 34%
Decrease in osteoid width ([4]; higher dose, 27 days): 27%
Decrease in rate of bone formation ([4]; higher dose, 27 days): 53%
Decline in mineral appositional rate ([4]; lower dose (0.7 mg/kg/d), 27 days): 22%
CFU-F colonies ([5]; higher dose (2.1 mg/kg/d), placebo 1250±374, NS): 698±104 number per femur
Decrease in number of CFU-OB colonies ([5]; higher dose): 86%
Decrease in number of osteoclastic cells ([5]; higher dose): 65%
CFU-OB colonies ([5]; higher dose, placebo 375±257): 54±14 number per femur
Osteoclastic cells formed in response to 1.25(OH)2D3 ([5]; higher dose, placebo 1387±920): 492±311 number per femur
Apoptotic hypertrophic chondrocytes and bone marrow cells ([6]; either dose, mice): increase
Increase in osteoblast apoptosis in vertebrae ([6]; higher dose, 27 days, vs controls): 3 fold
Apoptotic osteocytes in femoral metaphyseal cortical bone ([6]; higher dose, 27 days, 131 osteocytes, none in controls): 28%
Osteoblast apoptosis in vertebral cancellous bone ([6]; higher dose, 27 days, controls 0.66%±0.07): 2.03%±0.34
fAp, fraction of osteoblasts that undergoes apoptosis ([6]; higher dose, estimate with tAp doubled, placebo 0.6): 0.9
Prevalence of osteoblast apoptosis (fraction) ([6]; higher dose, placebo 0.0066): 0.0203
Osteoclast apoptosis ([6]; mice, 27 days): not observed
Decrease in osteoblast perimeter ([7]; higher dose, 7 days): 59%
Increase in osteoclast perimeter ([7]; higher dose, 7 days): 96%

Cancellous bone area (human cancellous bone; one value each, normal is 22.4±1.2 SEM): 11.1% and 8.8%
Osteoclast perimeter (human cancellous bone; normal is 0.9±0.2): 0% and 0.4%
Reversal perimeter (human cancellous bone; normal is 6.9±0.7): 13.5% and 15.4%
Osteoblast perimeter (human cancellous bone; normal is 7.6±0.4): 2.1% and 2.3%
Trabecular width (human cancellous bone; normal is 161±9): 62 μm and 118 μm
SMILES: C[C@]12C=CC(=O)C=C1CC[C@@H]1[C@@H]2C(=O)C[C@@]2(C)[C@H]1CC[C@]2(O)C(=O)CO [prednisone]
Apoptosis of osteoclasts or cortical osteocytes [8]: not observed
Apoptotic osteoblasts in cancellous bone ([8]; 15 to 25 mg/d for 3 to 6 yr, absent in controls): ~30%
